Consider one compound from patent US12678414B2, “Compositions for treatment of fungal nail infections” (Blueberry Therapeutics Limited, priority 2016, dated 2026).

“Also recorded” adds a separate entry of the source. Where a name gives a salt, the structure may show the parent alone. Read-outs that look alike come from different tables or passages of the source. Bounds are passed on as bounds.

Data set [1] concerns T. mentagrophytes. Kind of data set: Trychophyton mentagrophytes anti-fungal paper disc lawn assay. It counts as cell-based. The protocol:
A single colony of T. mentagrophytes was picked from a stock plate and grown for 48 hours in 5 mls of YEPD (yeast extract, peptone, dextrose) medium at 30° C. A sterile swab was dipped into the resulting culture and then used to spread a lawn of T. mentagrophytes onto a YEPD agar plate supplemented with chloramphenicol (50 ug/ml). […] A 10 mm sterile paper disc was soaked in test solution, the excess liquid removed and the disc placed onto the T. mentagrophytes lawn. Plates were inverted and incubated at 30° C. for 5 days. The first experiment performed was to establish the approximate MIC (minimum inhibitor concentration) for terbinafine against T. mentagrophytes in a paper disc assay. […] After 5 days of incubation, zones of clearance were observed around the discs with concentrations of terbinafine having anti-fungal activity against this species (as shown in FIG. 10). […] The reported figures were certainly derived from a liquid MIC assay, which is known to be more sensitive, and so this paper disc assay represented a substantially more stringent test of drug efficacy. This assay was also used to address the question of whether terbinafine passing through the nail in BB0305 treated samples still retained its antifungal efficacy.

Data set [2] in a line: Nanoparticle analysis on Nanosight LM10. In kind it is physicochemical. The protocol:
Nanoparticle formation was routinely confirmed on a Nanosight LM10 instrument (Malvern Instruments). Additional nanoparticle analyses were carried out using a Zetasizer (Malvern Instruments). […] Initial analysis used a Nanosight LM10 nanosizer (Malvern Instruments) to detect nanoparticles in solution. […] The LM10 uses direct visualisation of the particles through a microscope where particles are tracked by a video camera and their sizes calculated using the Einstein-Stokes equation, which relates particle velocity in a solution to their diameter. This video capture also allows for a qualitative assessment of different formulations during their analysis. However, this instrument has a lower cut-off range of approximately 20 nm diameter for analysis.

The format of data set [3] is in vitro ADME. The conditions noted are these: human, 7 days. As to the method:
Nail clippings were soaked in water overnight at 30° C. and dried briefly. A 3 mm diameter punch was used to take disc biopsies of the nail clippings. Each nail disc was added to a Franz cell and an upper chamber of the cell attached. 40 μl of the following formulations was added to the upper chambers: 0.3 mg/ml PHMB+0.1 mg/ml terbinafine; or 10 mg/ml terbinafine. Lower collection chambers of the Franz cells were filled with water (approximately 600 μl) and the hole in the base of the sample chamber also filled with ddH2O to prevent bubbles forming beneath the nail. The upper sample chamber was carefully placed into the collection chamber ensuring not to introduce any air bubbles. Excess liquid from the collection chamber was expelled at this point leaving a final volume of liquid in the lower chamber of 500 μl. […]
The nail discs from the Franz cell were also analysed for the presence of terbinafine as follows: the remaining test sample was removed from the upper sample chamber and discarded and the sample chamber washed 5 times with 100 μl ddH2O, with each wash being discarded, in order to remove any residual test solution remaining in the sample chamber. […]
The cells were then incubated at 32° C. for 7 days. […] After 7 days, samples from the underside of the nail (ethanol washes) were collected and analysed by LC-MS/MS. […] Levels of terbinafine were quantified against drug standards. […]

For data set [4], the system named is Epidermophyton floccosum. The conditions noted are these: 42 strains tested; cited from earlier work.
The subject of data set [5] is Microsporum species. The conditions noted are these: 25 strains tested; cited from earlier work.
Data set [6] concerns Microsporum canis. The conditions noted are these: 49 strains tested; cited from earlier work.
In data set [7] the test system is Trichophyton species. The conditions noted are these: 27 strains tested; cited from earlier work.
The subject of data set [8] is Trichophyton rubrum. Conditions: 72 strains tested; cited from earlier work.
Data set [9] relates to Trichophyton verrucosum. The conditions noted are these: 17 strains tested; cited from earlier work.
The subject of data set [10] is Trichophyton mentagrophytes. The conditions noted are these: cited from earlier work.
The test system of data set [11] is Trichophyton interdigitale. Conditions: 11 strains tested; cited from earlier work.
Data set [12] deals with Trichophyton terestre. Conditions: 1 strain tested; cited from earlier work.
The conditions of data set [13]: oral dosing, cited from earlier work.
Data set [14] deals with onychomycosis. The conditions noted are these: oral, following 3-6 months of dosing; cited from earlier work.
Data set [15] has as its system onychomycosis. The conditions noted are these: topical terbinafine; hydrochloride; cited from earlier work.

Consider `CN(C/C=C/C#CC(C)(C)C)Cc1cccc2ccccc12` [terbinafine, terbinafine hydrochloride], for which the “paper disc MIC relative to previously reported MIC” value in [1] (0.6 μg/ml versus 6 ng/ml) is on record as more than 100 ×. Also, the MIC in [1] (Trichophyton mentagrophytes, 120 h, paper disc assay, 5 days incubation, approximate, read-out: MIC (minimum inhibitor concentration)) was 600 ng/mL. Further, in data set [1] (aqueous phase of Franz cell collection chamber after 7 days treatment of healthy human nail, 30° C., 5 days), the “antifungal activity (zone of clearance) of sample that passed through nail” value is recorded as “no effect”. For the same compound, the “number of particles/ml of solution” value in [2] (0.1 mg/ml terbinafine in 30% (v/v) ethanol) was less than 5e+07 mL⁻¹. Moreover, in data set [2] (0.1 mg/ml terbinafine, 30% ethanol), the “particle size range (diameter)” value is on record as 50-800 nm. For the same compound, the particle number in [2] (30% ethanol, room temperature at least 24 hours, 0.1 mg/ml terbinafine) was 0.5×10^8 particles/ml. Moreover, the “median concentration of drug in dissolved nails” value in data set [3] is given as “approximately 0.5 mg/g”. Besides, the “terbinafine passing through the nail (ethanol washes of underside)” value in data set [3] (0.1 mg/ml) is less than 0.1 ng/mL. The MIC range in data set [4] is 1 to 47 ng/mL; in data set [5] it was 2 to 70 ng/mL; in data set [6], 6 to 80 ng/mL; in data set [7], not above 60 ng/mL; in data set [8], 1 to 38 ng/mL; in data set [9] it was 1 to 6 ng/mL. The results for the MIC range in data set [10] (32 strains tested), in data set [11] and in [12] were 1 to 6 ng/mL, 2 to 28 ng/mL and 2 ng/mL, respectively. Also, the “previously reported MIC” value in data set [10] (liquid MIC assay, with reference to Table 1) was 6 ng/mL. In addition, the “terbinafine concentration in nails” value is “about 0.25 μg/g” in data set [13] (after 3 weeks), 0.55 µg/g in data set [13] (after 18 months) and 0.1 µg/g in data set [13] (after 7 days treatment). The cure in data set [14] was more than 80%. Further, the “efficacy in the treatment of onychomycosis” value in [15] was “failed to show efficacy; also recorded: failed to demonstrate any significant efficacy”.
